Results as given in paper PMC7083851, “Extended pharmacodynamic responses observed upon PROTAC-mediated degradation of RIPK2” (Communications Biology, 2020).
Where “and” joins values, the source holds several entries; their conditions need not be identical. Identical values can stand only once.

Experiments:
[1] = Blood concentrations after subcutaneous dosing in rat PK/PD studies; type: in vivo; conditions: rat, […] Q3D SC
Procedure: Female CD rats (7–8 weeks old on arrival, Charles River Ltd.) were placed into groups using a randomization schedule based on body weight prior to the study start. All animals were acclimatized for a minimum of one week prior to the experiment commencing. […] PROTAC 4 was dissolved in saline with the pH adjusted to 5.0 with sodium hydroxide (1 M).

[2] = tested on: L18-MDP-induced cytokine release; test: In vivo L18-MDP acute inflammation model, spleen cytokines; design: species or system rat; cytokine level (fig 6d) / cytokine level (fig 6e) / cytokine level (fig 6f): unit not given here; conditions: for cytokine level (fig 6e) / cytokine level (fig 6f) / cytokine level (fig 6d): spleen, individual rats, beside L18-MDP control
Procedure: In vivo L18-MDP administration to rodents results in an acute inflammatory response characterised by the rapid production of inflammatory cytokines. […]. […]. Blood concentrations of 6 and 7 tracked closely and dropped below the LLQ after 24 h.
. Cytokine levels were determined in serum generated from the terminal blood samples and in tissue lysates as detailed below.
(§1) Cytokine measurement assay: Cytokine levels were measured in rat plasma or rat PBMCs cell culture supernatants using rat V-Plex TNFα, in human plasma or human PBMCs cell culture supernatants with either TNFα tissue culture or 7-plex kit. Rat serum and tissues samples from the in vivo L18-MDP acute inflammation model were analyzed using the rat TNFα, Il-6 and IL-8 U-Plex kits. All kits provided by Meso Scale Discovery (MSD). Levels of cytokines spontaneously released from human colon biopsies cell culture supernatants were measured using Human IL-1 beta/IL-1F2 DuoSet ELISA (Bio-techne), Human IL-6 ELISA (Immunotools) and Human TNF-alpha DuoSet ELISA (Bio-techne). All samples were processed accordingly to the manufacturer’s instructions. The MSD plates were analyzed using the MSD sector imager 6000 plate reader and cytokines concentration (pg/ml) was obtained by using the MSD DISCOVERY WORKBENCH software version 4.0.12.1
For in vivo studies, RIPK2:tubulin ratios and cytokine levels from each individual experiment were analysed either using a One-way ANOVA with Dunnet’s post-test or a two way ANOVA using GraphPad Prism 5.0.4 to determine statistical significance with 95% confidence levels.

[3] = tested on: spontaneous IL-1β, IL-6, and TNFα release; test: Spontaneous cytokine release (IL-1β, IL-6, TNFα) from ulcerative colitis patient intestinal biopsies; type: cell-based, human; conditions: for IL-1b (Ctrl=DMSO = 100) / IL-6 (Ctrl=DMSO = 100) / TNFa (Ctrl=DMSO = 100): individual biopsies, fig 4f
Procedure: Colonic biopsies or tissues were obtained during endoscopy or via surgical resection from Crohn’s Disease (CD) or Ulcerative Colitis (UC) patients (St Bartholomew’s Hospital, London). All patients gave informed written consent. For surgical specimens, the mucosa was dissected away from the submucosa and cut into pieces of ~10–20 mg. […] The supernatants were collected for cytokine measurement as detailed in cytokines assay section while tissues were used to determine RIPK2 levels.
as §1

cIAP1 = target: T1, cIAP1 (Homo sapiens, UniProt Q13490); type: cell-based; conditions: human PBMCs, 24 h, 1uM
T1 construct: endogenous in cells; host or cells: primary human PBMCs
T1 sequence (Q13490 whole entry): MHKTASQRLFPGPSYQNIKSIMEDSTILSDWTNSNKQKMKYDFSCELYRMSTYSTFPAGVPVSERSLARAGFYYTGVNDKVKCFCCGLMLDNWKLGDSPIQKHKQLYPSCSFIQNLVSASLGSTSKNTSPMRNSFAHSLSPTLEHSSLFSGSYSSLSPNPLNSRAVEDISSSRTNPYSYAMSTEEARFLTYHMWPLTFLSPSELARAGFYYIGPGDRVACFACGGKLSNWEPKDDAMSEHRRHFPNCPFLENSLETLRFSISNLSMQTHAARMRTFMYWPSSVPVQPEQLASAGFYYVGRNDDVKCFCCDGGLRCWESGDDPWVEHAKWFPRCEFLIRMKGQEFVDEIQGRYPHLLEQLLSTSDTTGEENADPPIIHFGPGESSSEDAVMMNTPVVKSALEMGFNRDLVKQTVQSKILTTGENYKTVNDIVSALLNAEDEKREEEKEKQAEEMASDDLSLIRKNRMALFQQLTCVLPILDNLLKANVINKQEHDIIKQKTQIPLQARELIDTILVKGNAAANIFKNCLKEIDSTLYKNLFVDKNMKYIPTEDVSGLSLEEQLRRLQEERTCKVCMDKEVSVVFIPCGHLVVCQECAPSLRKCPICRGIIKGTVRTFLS
Procedure: Where the assessment of cytokines was performed, L18-MDP was added to the cell culture media (1 μg/ml) or to the rat blood samples (100 ng/ml) and samples were incubated for up to 4 h. […] Samples were them spun down at 1000 g and the cell culture supernatant, plasma or serum were collected for cytokines assessment, while cell pellets were used for RIPK2 and/or cIAP1, cIAP2, and XIAP levels analysis via immunoblotting.
Simple Western immunoassay: Cell lysates were mixed with 5× concentrated master mix (Protein Simple) and denatured at 95 °C on a heat block for 5 min together with the provided ladder (Protein Simple). Antibodies were diluted in the provided buffer as following: anti-RIPK2 (1:10 or 1:50), anti-cIAP1(1:10), anti-cIAP2 (1:10), anti-XIAP (1:10), mouse anti-β-actin (Abcam - 1:1000), rabbit anti-β-actin (Abcam - 1:50) and anti-vinculin (1:100). All reagents (blocking buffer, primary and secondary antibodies, streptavadin, luminol/peroxide, separation matrix, stacking matrix and water) were added to the Protein Simple plate containing the ladder and lysates and the plate was placed in a Protein Simple Western instrument and the Simple Western default size assay protocol was used. […] The area under the peak values obtained for RIPK2, cIAP1, cIAP2 or XIAP were normalized relative to the control protein values.

CN[C@@H](C)C(=O)N[C@H](C(=O)N1C[C@@H](NC(=O)c2cnc(N3CCN(CCCOc4cc5ncnc(Nc6n[nH]c(C)c6C)c5cc4S(=O)(=O)C(C)(C)C)CC3)cn2)C[C@H]1C(=O)Nc1c(F)cccc1F)C(C)(C)C [PROTAC 6]
time drug levels were maintained above the LLQ after the first dose [1]: 24 h
inhibition of TNFα and IL-8 in spleen, in words ([2]; rat, 0.3 mg/kg SC, intravenous L18-MDP challenge): short-lived and returned to basal levels by the third day post-dose
cytokine level (fig 6e) ([2]; time 6 h): 14.13 and 34.14 and 14.02 and 19.73 and 14.97
cytokine level (fig 6f) ([2]; time 6 h): 4.45 and 4.35 and 4.34 and 3.21 and 3.53
cytokine level (fig 6d) ([2]; time 6 h): 2.77 (2×) and 3.58 and 3.26 and 3.28
cytokine level (fig 6e) ([2]; time 24 h): 45.7 and 38.46 and 58.3 and 40.91 and 52.98
cytokine level (fig 6f) ([2]; time 24 h): 4.32 and 2.78 and 5.01 and 2.54 and 9.72
cytokine level (fig 6d) ([2]; time 24 h): 4.43 and 2.62 and 4.18 and 4.64 and 5.01
cytokine level (fig 6e) ([2]; time 72 h): 111.22 and 59.85 and 73.1 and 99 and 52.1
cytokine level (fig 6f) ([2]; time 72 h): 75.27 and 51.34 and 57.62 and 94.65 and 61.7
cytokine level (fig 6d) ([2]; time 72 h): 45 and 42.87 and 29.6 and 47.75 and 33.69
cytokine level (fig 6e) ([2]; time 240 h): 97.65 and 76.46 and 96.01 and 80.21 and 59.48
cytokine level (fig 6f) ([2]; time 240 h): 72.27 and 99.15 and 93.27 and 64.45 and 48.45
cytokine level (fig 6d) ([2]; time 240 h): 65.15 and 73.34 and 58.46 and 1.72 and 47.46
cytokine level (fig 6e) ([2]; time 408 h): 146.67 and 133.23 and 180.63 and 211.01 and 68.17
cytokine level (fig 6f) ([2]; time 408 h): 79.92 and 69.55 and 103.81 and 98.05 and 47.92
cytokine level (fig 6d) ([2]; time 408 h): 41.62 and 64.64 and 76.25 and 77.33 and 37.06
IC50 ([3]; Homo sapiens, 24 h, read-out: IC50 inhibition of spontaneous cytokine release): 1 to 3 nM
IL-1b (Ctrl=DMSO = 100) ([3]; compound concentration 0.05 nM): 133 and 73 and 55
IL-6 (Ctrl=DMSO = 100) ([3]; compound concentration 0.05 nM): 93 and 184 and 79 and 87 and 89 and 91
TNFa (Ctrl=DMSO = 100) ([3]; compound concentration 0.05 nM): 89 and 94 (2×) and 80 and 99
IL-1b (Ctrl=DMSO = 100) ([3]; compound concentration 0.5 nM): 74 and 22 and 52 and 46
IL-6 (Ctrl=DMSO = 100) ([3]; compound concentration 0.5 nM): 92 and 83 and 67 and 77 and 80 and 11 and 42
TNFa (Ctrl=DMSO = 100) ([3]; compound concentration 0.5 nM): 130 and 71 and 83 and 70 and 41 and 86
IL-1b (Ctrl=DMSO = 100) ([3]; compound concentration 5 nM): 49 and 88 and 62 (2×) and 28 and 58 and 77 and 41 and 55 and 30 and 27 (2×) and 11 and 37 and 67 and 54 and 44 and 40 and 39
IL-6 (Ctrl=DMSO = 100) ([3]; compound concentration 5 nM): 56 and 59 and 11 and 74 and 96 and 85 and 64 and 76 (2×) and 88 and 71 and 79 and 77 and 55 and 44 and 53 and 86 and 25 and 29
TNFa (Ctrl=DMSO = 100) ([3]; compound concentration 5 nM): 36 and 47 and 58 and 65 and 88 and 75 and 56 and 78 and 49 and 67 (2×) and 48 and 31 and 86 and 41 and 66 and 57
IL-1b (Ctrl=DMSO = 100) ([3]; compound concentration 50 nM): 38 and 22 and 12 (2×) and 95 and 26 and 24 and 43 and 15 and 68 and 21 and 1 and 23 and 39 and 18 and 7 and 11 and 34
IL-6 (Ctrl=DMSO = 100) ([3]; compound concentration 50 nM): 60 and 39 and 68 and 67 and 21 (2×) and 10 and 19 and 76 and 22 and 48 (2×) and 75 and 36 and 35 and 62 and 11 and 24
TNFa (Ctrl=DMSO = 100) ([3]; compound concentration 50 nM): 28 and 33 (2×) and 29 (2×) and 4 and 49 and 47 and 53 and 35 and 57 (2×) and 60 and 15 and 56 and 46 and 19 and 25 and 65
reduction in cIAP1 levels (cIAP1): ~ 25%
